Measurements taken from ChEMBL document CHEMBL2385044, “Inhibitors for the hepatitis C virus RNA polymerase explored by SAR with advanced machine learning methods” (Bioorg Med Chem, 2013).

What was measured:
Hepatitis C virus [1] = assay: Inhibition of Hepatitis C virus subtype 1b J4L6 NS5B Cdelta21 RNA dependent RNA polymerase after 60 mins by liquid scintillation counting analysis; conditions: J4L6, 1 h
Hepatitis C virus [2] = assay: Inhibition of Hepatitis C virus CON1 NS5B RNA dependent RNA polymerase after 2 hrs by scintillation counting analysis; set-up: species or system Hepacivirus hominis; conditions: Con1, 2 h

Row | IC50 (Hepatitis C virus [2]) [µM] | IC90 (Hepatitis C virus [2]) [µM] | SMILES | IC50 (Hepatitis C virus [1]) [µM]
1 | – | – | COc1c2c(cc3c1C(C#CCOc1cc4c5c(oc4cc1C(C)(C)C)CCCC5)N(C)CC3)OCO2 (centres undefined) | 38
2 | 14.2 | 28 | CCOc1nc2cccc(C(=O)OC(C)OC(=O)OC3CCCCC3)c2n1Cc1ccc(-c2ccccc2-c2nn[nH]n2)cc1 (centres undefined) [CANDESARTAN CILEXETIL] | –
3 | – | – | CCOC(=O)c1c(NC(=O)CSc2nnc3nc4[nH]c5ccccc5c4nn23)sc2c1CCN(C)C2 | 46.3
